Values joined by “and” are separate entries in the source; they are usually repeats but may differ in a detail not shown here. Equal values may be shown once. Read-outs that look alike come from different tables or passages of the source.
Key:
Test in all cases: SelectScreen kinase assay
AAK1 = AAK1 (Homo sapiens, UniProt Q2M2I8)
Method: (§1) Selectivity profiling assays were performed by the Invitrogen SelectScreen™ Services. […] The concentration of ATP was selected to be equal to the KM, unless indicated otherwise.

ADRBK1 (GRK2) = molecular target: T1, ADRBK1 (GRK2) (Homo sapiens, UniProt P25098); conditions: for Inhibition at 1 µM (%): ADRBK1 (GRK2), ZLYTE, ATP Km app
T1 sequence (P25098 1-689): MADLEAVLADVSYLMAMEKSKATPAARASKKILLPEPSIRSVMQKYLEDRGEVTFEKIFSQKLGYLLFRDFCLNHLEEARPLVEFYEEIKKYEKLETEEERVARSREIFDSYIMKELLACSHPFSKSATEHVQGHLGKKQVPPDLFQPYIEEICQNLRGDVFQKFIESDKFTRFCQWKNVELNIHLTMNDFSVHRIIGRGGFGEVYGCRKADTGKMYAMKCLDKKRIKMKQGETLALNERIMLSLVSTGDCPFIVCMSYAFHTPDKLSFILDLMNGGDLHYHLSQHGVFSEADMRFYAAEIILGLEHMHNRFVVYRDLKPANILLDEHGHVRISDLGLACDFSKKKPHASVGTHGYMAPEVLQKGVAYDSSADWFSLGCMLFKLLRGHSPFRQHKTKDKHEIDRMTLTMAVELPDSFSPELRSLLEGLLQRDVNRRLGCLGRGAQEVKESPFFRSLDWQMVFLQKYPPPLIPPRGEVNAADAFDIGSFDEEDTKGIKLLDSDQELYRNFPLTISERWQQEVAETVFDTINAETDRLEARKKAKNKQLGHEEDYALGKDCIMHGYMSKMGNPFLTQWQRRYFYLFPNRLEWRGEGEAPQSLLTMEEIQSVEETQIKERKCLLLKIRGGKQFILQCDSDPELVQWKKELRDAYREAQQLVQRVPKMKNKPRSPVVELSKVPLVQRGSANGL
Method: as §1

CAMKK2 (CaMKK beta) = CAMKK2 (CaMKK beta) (Homo sapiens, UniProt Q96RR4)
Method: as §1

CDK17/cyclin Y = CDK17/cyclin Y (Homo sapiens, UniProt Q00537)
Method: as §1

CSNK1A1L = CSNK1A1L (Homo sapiens, UniProt Q8N752)
Method: as §1

GRK4 = GRK4 (Homo sapiens, UniProt P32298); conditions: for Inhibition at 1 µM (%): GRK4, ZLYTE, ATP Km app
Chain of GRK4 (P32298 whole entry): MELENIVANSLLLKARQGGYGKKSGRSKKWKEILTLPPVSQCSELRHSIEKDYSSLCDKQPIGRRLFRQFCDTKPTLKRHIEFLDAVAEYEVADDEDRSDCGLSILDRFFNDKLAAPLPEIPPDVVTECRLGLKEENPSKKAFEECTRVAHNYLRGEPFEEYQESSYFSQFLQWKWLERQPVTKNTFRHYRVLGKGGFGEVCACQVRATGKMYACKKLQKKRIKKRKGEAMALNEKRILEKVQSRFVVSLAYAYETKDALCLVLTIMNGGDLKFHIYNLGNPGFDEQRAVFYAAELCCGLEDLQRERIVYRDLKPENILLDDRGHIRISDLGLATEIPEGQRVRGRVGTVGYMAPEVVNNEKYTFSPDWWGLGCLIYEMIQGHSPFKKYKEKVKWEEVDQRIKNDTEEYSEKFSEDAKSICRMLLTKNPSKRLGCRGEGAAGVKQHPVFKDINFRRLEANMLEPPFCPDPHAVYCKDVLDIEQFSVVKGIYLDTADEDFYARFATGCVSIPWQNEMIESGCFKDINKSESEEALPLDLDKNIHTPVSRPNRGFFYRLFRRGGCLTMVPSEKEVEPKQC
Method: as §1

MAP4K1 (HPK1) = MAP4K1 (HPK1) (Homo sapiens, UniProt Q92918)
Method: as §1

MAPK9 (JNK2) = MAPK9 (JNK2) (Homo sapiens, UniProt P45984)
Chain of MAPK9 (JNK2) (P45984 whole entry): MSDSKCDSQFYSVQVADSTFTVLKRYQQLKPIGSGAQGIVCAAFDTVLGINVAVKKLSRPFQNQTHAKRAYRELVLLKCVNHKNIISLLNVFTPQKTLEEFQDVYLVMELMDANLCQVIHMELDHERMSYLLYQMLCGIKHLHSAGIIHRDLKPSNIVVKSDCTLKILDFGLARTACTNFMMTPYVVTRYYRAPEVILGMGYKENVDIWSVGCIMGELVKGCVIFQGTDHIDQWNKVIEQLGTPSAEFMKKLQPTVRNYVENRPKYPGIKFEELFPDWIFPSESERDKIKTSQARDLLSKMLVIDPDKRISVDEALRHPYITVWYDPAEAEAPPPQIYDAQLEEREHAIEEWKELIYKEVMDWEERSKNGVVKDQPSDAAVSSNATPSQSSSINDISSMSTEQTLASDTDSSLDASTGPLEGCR
Method: as §1

MATK (HYL) = MATK (HYL) (Homo sapiens, UniProt P42679)
Method: as §1

MELK = MELK (Homo sapiens, UniProt Q14680)
Method: as §1

PI4K2A (PI4K2 alpha) = PI4K2A (PI4K2 alpha) (Homo sapiens, UniProt Q9BTU6)
Chain of PI4K2A (PI4K2 alpha) (Q9BTU6 whole entry): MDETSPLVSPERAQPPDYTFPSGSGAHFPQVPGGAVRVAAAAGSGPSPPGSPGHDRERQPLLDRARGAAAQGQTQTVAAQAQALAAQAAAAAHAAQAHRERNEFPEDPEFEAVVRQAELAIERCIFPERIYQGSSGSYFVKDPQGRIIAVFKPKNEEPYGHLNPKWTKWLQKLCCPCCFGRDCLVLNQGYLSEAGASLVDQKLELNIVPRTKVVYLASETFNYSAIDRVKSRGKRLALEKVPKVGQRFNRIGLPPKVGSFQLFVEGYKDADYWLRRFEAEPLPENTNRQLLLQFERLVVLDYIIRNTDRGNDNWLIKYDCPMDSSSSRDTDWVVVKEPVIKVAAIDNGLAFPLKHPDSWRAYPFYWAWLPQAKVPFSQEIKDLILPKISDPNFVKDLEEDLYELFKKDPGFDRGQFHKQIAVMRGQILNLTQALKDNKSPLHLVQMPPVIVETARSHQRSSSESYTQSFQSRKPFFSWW
Method: as §1

PIP5K1A = PIP5K1A (Homo sapiens, UniProt Q99755)
Chain of PIP5K1A (Q99755 whole entry): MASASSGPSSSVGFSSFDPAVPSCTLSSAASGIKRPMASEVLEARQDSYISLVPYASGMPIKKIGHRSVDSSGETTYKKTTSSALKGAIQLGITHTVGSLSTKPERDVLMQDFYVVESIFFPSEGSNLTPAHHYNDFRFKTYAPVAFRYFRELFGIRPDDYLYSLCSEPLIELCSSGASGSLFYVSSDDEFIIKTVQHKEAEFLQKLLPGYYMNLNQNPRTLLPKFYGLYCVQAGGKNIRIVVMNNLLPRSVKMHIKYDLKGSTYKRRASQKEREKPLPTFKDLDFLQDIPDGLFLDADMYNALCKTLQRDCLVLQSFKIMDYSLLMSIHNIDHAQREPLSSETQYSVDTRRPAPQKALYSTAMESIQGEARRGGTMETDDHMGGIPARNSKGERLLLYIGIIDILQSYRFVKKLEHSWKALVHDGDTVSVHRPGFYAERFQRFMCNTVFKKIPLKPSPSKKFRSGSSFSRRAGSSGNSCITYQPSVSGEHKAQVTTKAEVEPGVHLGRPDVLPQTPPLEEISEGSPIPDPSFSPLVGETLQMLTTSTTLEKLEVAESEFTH
Method: as §1

PRKACA (PKA) = PRKACA (PKA) (Homo sapiens, UniProt P17612)
Method: as §1

PRKCE (PKC epsilon) = PRKCE (PKC epsilon) (Homo sapiens, UniProt Q02156)
Chain of PRKCE (PKC epsilon) (Q02156 whole entry): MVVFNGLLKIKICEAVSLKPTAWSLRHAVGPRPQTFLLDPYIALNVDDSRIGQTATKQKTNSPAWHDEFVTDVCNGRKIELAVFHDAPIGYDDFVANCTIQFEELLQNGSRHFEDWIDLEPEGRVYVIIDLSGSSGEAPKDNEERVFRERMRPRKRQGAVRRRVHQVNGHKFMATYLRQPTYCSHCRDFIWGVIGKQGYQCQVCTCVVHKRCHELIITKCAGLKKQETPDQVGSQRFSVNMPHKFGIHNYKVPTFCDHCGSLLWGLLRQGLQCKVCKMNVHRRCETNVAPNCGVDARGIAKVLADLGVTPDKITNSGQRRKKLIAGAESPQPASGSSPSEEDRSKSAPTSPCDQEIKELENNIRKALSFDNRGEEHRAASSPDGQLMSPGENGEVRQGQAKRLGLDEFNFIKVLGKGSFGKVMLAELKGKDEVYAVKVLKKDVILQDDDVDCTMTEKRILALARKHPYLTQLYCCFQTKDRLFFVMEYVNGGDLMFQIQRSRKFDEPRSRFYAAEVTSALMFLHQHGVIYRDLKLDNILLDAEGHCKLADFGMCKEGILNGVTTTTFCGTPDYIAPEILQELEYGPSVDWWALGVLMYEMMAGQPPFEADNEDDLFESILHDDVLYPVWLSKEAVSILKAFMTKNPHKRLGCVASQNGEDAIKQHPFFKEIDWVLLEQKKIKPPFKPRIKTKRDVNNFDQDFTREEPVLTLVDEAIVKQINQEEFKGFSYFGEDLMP
Method: as §1

TNK2 (ACK) [1] = molecular target: TNK2 (ACK) (Homo sapiens, UniProt Q07912)
Chain of TNK2 (ACK) (Homo sapiens, UniProt Q07912) (Q07912 whole entry, species assumed): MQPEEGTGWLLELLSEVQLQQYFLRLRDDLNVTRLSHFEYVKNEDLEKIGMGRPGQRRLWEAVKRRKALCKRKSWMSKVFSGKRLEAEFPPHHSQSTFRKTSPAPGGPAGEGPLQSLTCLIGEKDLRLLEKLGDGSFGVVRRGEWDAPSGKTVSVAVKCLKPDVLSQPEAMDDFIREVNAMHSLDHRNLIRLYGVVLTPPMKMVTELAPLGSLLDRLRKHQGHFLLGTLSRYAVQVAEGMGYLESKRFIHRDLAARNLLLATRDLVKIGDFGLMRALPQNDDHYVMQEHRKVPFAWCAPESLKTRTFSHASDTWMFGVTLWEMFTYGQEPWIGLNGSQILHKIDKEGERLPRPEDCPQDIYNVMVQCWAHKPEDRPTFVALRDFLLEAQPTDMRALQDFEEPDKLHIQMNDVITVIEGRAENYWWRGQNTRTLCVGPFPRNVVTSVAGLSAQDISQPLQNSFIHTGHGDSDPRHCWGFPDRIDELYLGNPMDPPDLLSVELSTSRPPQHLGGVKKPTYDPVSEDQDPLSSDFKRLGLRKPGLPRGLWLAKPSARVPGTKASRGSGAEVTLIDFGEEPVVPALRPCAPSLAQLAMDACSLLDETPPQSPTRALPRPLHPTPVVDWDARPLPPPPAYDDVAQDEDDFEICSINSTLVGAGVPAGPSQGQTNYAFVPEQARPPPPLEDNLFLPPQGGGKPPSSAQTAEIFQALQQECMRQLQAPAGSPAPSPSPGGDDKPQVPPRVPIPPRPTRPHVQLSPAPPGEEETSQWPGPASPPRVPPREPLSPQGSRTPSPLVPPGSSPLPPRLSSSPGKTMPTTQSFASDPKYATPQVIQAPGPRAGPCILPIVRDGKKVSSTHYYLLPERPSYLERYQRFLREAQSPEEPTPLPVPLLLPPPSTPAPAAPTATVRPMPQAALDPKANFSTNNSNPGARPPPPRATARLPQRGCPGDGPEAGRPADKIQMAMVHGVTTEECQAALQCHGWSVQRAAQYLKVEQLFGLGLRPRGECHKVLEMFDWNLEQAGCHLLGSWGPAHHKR

TNK2 (ACK) [2] = conditions: IC50 on that kinase divided by IC50 on FES^S700C
TYK2 = TYK2 (Homo sapiens, UniProt P29597)
Chain of TYK2 (P29597 whole entry): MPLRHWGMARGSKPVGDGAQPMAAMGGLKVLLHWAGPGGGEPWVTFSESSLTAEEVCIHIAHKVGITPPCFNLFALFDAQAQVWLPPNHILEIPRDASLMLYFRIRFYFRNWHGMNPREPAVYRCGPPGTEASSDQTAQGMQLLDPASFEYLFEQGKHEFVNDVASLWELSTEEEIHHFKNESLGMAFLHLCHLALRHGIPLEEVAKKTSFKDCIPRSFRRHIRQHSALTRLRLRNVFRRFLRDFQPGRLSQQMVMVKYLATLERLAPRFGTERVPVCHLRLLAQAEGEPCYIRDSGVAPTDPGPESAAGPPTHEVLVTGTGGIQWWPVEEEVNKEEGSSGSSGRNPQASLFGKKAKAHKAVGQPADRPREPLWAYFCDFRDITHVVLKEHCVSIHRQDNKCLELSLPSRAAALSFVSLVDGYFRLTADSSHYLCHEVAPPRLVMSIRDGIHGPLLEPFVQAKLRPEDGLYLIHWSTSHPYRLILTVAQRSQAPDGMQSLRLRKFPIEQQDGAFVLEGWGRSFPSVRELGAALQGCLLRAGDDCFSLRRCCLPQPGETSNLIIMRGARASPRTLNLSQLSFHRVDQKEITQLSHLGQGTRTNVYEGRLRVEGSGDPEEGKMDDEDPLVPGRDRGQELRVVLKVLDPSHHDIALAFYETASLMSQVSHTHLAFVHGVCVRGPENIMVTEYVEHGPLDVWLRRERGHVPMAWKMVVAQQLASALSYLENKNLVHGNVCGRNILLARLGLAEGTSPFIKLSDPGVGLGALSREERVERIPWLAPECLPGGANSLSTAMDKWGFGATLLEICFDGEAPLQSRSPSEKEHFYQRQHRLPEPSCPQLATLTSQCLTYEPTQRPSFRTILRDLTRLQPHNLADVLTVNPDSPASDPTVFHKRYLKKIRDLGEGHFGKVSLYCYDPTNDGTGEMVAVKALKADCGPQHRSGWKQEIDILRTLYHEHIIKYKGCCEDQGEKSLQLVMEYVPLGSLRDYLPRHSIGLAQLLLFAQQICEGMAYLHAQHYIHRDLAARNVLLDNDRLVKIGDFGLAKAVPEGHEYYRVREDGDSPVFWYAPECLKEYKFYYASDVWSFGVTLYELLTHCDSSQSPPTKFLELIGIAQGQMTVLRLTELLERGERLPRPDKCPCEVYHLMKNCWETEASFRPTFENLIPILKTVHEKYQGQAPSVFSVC
Method: as §1

WNK2 = WNK2 (Homo sapiens, UniProt Q9Y3S1)
Method: as §1

[3] = 1 h, 1 μM WEL028, 1 h preincubation
[4] = read-out: Inhibition at 1 µM (%)
[5] = 1 µM, LanthaScreen Binding, listed as WEL028, 1 µM
[6] = read-out: Inhibition at 1 µM (%), 1 µM, LanthaScreen Binding

## C#CCOc1ccc(Nc2ncc(Cl)c(Nc3ccccc3NC(=O)C=C)n2)c(OC)c1 [Compound 6]
AAK1; [3]
  inhibition at 1 µM: 33%
AAK1; AAK1, 1 µM, LanthaScreen Binding, listed as WEL028, 1 µM
  Inhibition at 1 µM (%): 30%
AAK1; read-out: Inhibition at 1 µM (%), AAK1, 1 µM, LanthaScreen Binding
  inhibition at 1 µM: 35%
ADRBK1 (GRK2); [3]
  inhibition at 1 µM: 4%
ADRBK1 (GRK2)
  Inhibition at 1 µM (%): 2%
ADRBK1 (GRK2); listed as WEL028, 1 µM
  Inhibition at 1 µM (%): 6%
CAMKK2 (CaMKK beta); 1 h
  inhibition at 1 µM: 23%
CAMKK2 (CaMKK beta); [4]
  inhibition at 1 µM: 23%
CDK17/cyclin Y; [3]
  inhibition at 1 µM: 4%
CDK17/cyclin Y; read-out: Inhibition at 1 µM (%), CDK17/cyclin Y, 1 µM, ZLYTE, ATP Km app
  inhibition at 1 µM: 5%
CSNK1A1L; 1 h
  inhibition at 1 µM: 5%
CSNK1A1L; [4]
  inhibition at 1 µM: 5%
GRK4; [3]
  inhibition at 1 µM: -1%
GRK4
  Inhibition at 1 µM (%): -2%
GRK4; listed as WEL028, 1 µM
  Inhibition at 1 µM (%): 1%
MAP4K1 (HPK1); [3]
  inhibition at 1 µM: 17%
MAP4K1 (HPK1); read-out: Inhibition at 1 µM (%), MAP4K1 (HPK1), 1 µM, LanthaScreen Binding
  inhibition at 1 µM: 16%
MAPK9 (JNK2); 1 μM WEL028, 1 h preincubation
  Inhibition (%): 2%
MAPK9 (JNK2); MAPK9 (JNK2), 1 µM, ZLYTE, ATP 100, listed as WEL028, 1 µM
  Inhibition at 1 µM (%): -1% and 5%
MATK (HYL); 1 h
  inhibition at 1 µM: 8%
MATK (HYL); [4]
  inhibition at 1 µM: 8%
MELK; [3]
  inhibition at 1 µM: -2%
MELK; MELK, 1 µM, ZLYTE, ATP Km app, listed as WEL028, 1 µM
  Inhibition at 1 µM (%): -3%
PI4K2A (PI4K2 alpha); [3]
  inhibition at 1 µM: 0%
PI4K2A (PI4K2 alpha); PI4K2A (PI4K2 alpha), 1 µM, Adapta, ATP 10, listed as WEL028, 1 µM
  Inhibition at 1 µM (%): 2% and -2%
PIP5K1A; [3]
  inhibition at 1 µM: -3%
PIP5K1A; PIP5K1A, 1 µM, Adapta, ATP 10, listed as WEL028, 1 µM
  Inhibition at 1 µM (%): 1% and -7%
PRKACA (PKA); [3]
  inhibition at 1 µM: 2%
PRKACA (PKA); PRKACA (PKA), 1 µM, ZLYTE, ATP Km app, listed as WEL028, 1 µM
  Inhibition at 1 µM (%): 4% and -1%
PRKCE (PKC epsilon); [3]
  inhibition at 1 µM: -13%
PRKCE (PKC epsilon); PRKCE (PKC epsilon), 1 µM, ZLYTE, ATP Km app, listed as WEL028, 1 µM
  Inhibition at 1 µM (%): -15% and -11%
TNK2 (ACK) [1]
  IC50: 316 nM
TNK2 (ACK) [1]; [5]
  Inhibition at 1 µM (%): 72%
TNK2 (ACK) [1]; [3]
  inhibition at 1 µM: 73%
TNK2 (ACK) [1]; 1 h, log[inhibitor] (M) -5.00, LanthaScreen Binding
  inhibition at 10 µM: 46%
TNK2 (ACK) [1]; 1 h, log[inhibitor] (M) -5.48, LanthaScreen Binding
  inhibition at 3.311 µM: 70%
TNK2 (ACK) [1]; 1 h, log[inhibitor] (M) -5.95, LanthaScreen Binding
  inhibition at 1.122 µM: 77%
TNK2 (ACK) [1]; 1 h, log[inhibitor] (M) -6.43, LanthaScreen Binding
  inhibition at 0.3715 µM: 48%
TNK2 (ACK) [1]; 1 h, log[inhibitor] (M) -6.91, LanthaScreen Binding
  inhibition at 0.123 µM: 25%
TNK2 (ACK) [1]; 1 h, log[inhibitor] (M) -7.39, LanthaScreen Binding
  inhibition at 0.04074 µM: 5%
TNK2 (ACK) [1]; [6]
  inhibition at 1 µM: 74%
TNK2 (ACK) [2]
  Apparent fold selectivity: 76 fold
TYK2; 1 μM WEL028, 1 h preincubation
  Inhibition (%): -1%
TYK2; 1 µM, ZLYTE, ATP Km app, listed as WEL028, 1 µM
  Inhibition at 1 µM (%): -6% and 4%
WNK2; [5]
  Inhibition at 1 µM (%): 4%
WNK2; [3]
  inhibition at 1 µM: 5%
WNK2; [6]
  inhibition at 1 µM: 5%

Reference: article PMC7316778 (Nature Communications, 2020)
